Reference: US20240368154A1 (GENOSCO Inc., priority 2023, published 2024)
pIC50: −log10 of the molar value. Structures can show the parent of a compound that is named as a salt.

How the values were obtained:
[1] = biological target: T1, Recombinant ROCK1 (amino acids 1-477) (Homo sapiens, UniProt Q13464); assay: ROCK inhibition assay, LANCE Ultra TR-FRET kinase assay; assay type: biochemical; settings: at Km of ATP (table title), method: 1 mM ATP, 50 nM ULight-CREBtide substrate, 1 hour, room temperature
T1 construct: Recombinant ROCK1 (amino acids 1-477)
T1 sequence (Q13464 1-477): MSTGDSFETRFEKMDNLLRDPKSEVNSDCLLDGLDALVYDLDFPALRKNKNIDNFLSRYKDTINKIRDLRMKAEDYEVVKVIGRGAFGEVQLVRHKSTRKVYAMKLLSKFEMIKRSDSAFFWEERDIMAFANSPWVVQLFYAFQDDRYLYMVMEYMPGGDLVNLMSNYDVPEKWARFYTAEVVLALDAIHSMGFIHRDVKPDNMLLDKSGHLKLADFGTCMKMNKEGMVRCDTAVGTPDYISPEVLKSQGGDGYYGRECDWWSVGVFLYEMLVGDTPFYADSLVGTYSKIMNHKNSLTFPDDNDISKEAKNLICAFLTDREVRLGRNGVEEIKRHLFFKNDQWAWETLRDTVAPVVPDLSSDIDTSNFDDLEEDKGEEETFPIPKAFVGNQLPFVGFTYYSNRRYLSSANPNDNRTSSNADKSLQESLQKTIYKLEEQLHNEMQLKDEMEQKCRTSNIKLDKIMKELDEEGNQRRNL
Protocol: (§1) Kinase IC50 was determined through an in vitro assay based on LANCE Ultra TR-FRET (Time-Resolved Fluorescence Resonance Energy Transfer) homogeneous technologies method (Perkin Elmer). Recombinant ROCK1 (amino acids 1-477) and ROCK2 (amino acids 5-554) proteins were purchased from Carna Biosciences and SignalChem. Compound activities were measured by Envision and IC50s were calculated. The assays were performed in white LUMITRAC™ 200 96 well half-area microplates from Greiner Bio-One. The kinase reaction buffer consisted of 50 mM HEPES pH 7.5, 1 mM EGTA, 10 mM MgCl2, 2 mM DTT and 0.01% Tween-20. Kinases were incubated with 50 nM (ULight-CREBtide) substrate in the presence of 1 mM (ROCK1) or 1 mM (ROCK2) of ATP. The kinase reaction was carried out for 1 hour before addition of a stopping buffer to a final of 10 mM EDTA and 0.6 nM of LANCE Ultra Europium anti-phospho-CREB (Ser133) antibody (PerkinElmer TRF0200) in LANCE detection buffer. All assay incubations were performed at room temperature, and the microplates were sealed with polyester film during that time. The reaction was incubated for 1 hour, and the signal was read in Envision in TR-FRET mode (excitation at 320 nm and emission at 615/665 nm).
(§2) As used herein, a way to describe potency of inhibitory activity (nM) is a value of inhibitory activity at 50% (IC50).

[2] = biological target: T2, Recombinant ROCK2 (amino acids 5-554) (Homo sapiens, UniProt O75116); assay: as above; assay type: biochemical; settings: at Km of ATP (table title), method: 1 mM ATP, 50 nM ULight-CREBtide substrate, 1 hour, room temperature
T2 construct: ROCK2 (amino acids 5-554)
T2 sequence (O75116 5-554): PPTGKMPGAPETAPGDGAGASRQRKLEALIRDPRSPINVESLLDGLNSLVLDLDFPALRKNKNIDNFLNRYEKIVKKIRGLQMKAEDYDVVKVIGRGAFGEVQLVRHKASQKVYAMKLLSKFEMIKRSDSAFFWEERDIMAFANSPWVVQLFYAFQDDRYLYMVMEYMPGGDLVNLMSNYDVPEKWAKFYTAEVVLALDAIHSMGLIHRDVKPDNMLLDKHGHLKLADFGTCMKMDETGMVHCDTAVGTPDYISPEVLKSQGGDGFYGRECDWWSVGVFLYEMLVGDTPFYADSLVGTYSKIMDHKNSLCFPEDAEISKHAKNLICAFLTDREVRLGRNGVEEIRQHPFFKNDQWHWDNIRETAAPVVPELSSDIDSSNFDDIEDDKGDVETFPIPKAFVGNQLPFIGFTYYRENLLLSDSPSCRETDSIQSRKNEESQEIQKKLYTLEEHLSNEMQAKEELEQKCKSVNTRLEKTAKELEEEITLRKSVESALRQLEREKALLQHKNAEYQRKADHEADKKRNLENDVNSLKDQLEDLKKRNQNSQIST
Protocol: as §1, §2

| Structure (SMILES) | pIC50 [1] | pIC50 [2] | pIC50 ([1]; hydrochloride) | pIC50 ([2]; hydrochloride) |
| --- | --- | --- | --- | --- |
| C[C@@H](O)Cn1cc(C(=O)C2COc3ccc(F)cc3C2)c2cnc(-c3cn[nH]c3F)nc21 (stereo partly drawn) [Compound 1-48] | > 8.00 | > 8.00 | – | – |
| C[C@@H](O)Cn1cc(C(=O)[C@@H]2COc3ccc(F)cc3C2)c2cnc(-c3cn[nH]c3F)nc21 [Compound 1-49] | > 8.00 | > 8.00 | – | – |
| C[C@@H](O)Cn1cc(C(=O)[C@@H]2COc3ccc(F)cc3C2)c2cnc(-c3cn[nH]c3F)nc21 [Compound 1-50] | > 8.00 | > 8.00 | – | – |
| C[C@@H](O)Cn1cc(C(=O)[C@@H]2COc3ccc(F)cc3C2)c2cnc(-c3cn[nH]c3F)nc21 [Compound 1-51] | > 8.00 | > 8.00 | – | – |
| COc1[nH]ncc1-c1ncc2c(C(=O)C3COc4ccc(F)cc4C3)cn(CC(C)(C)O)c2n1 (stereo not drawn) [Compound 1-52] | 6.30 to 7.29 | 7.30 to 7.96 | – | – |
| COc1[nH]ncc1-c1ncc2c(C(=O)C3COc4ccc(Cl)cc4C3)cn(C[C@H](C)O)c2n1 (stereo partly drawn) [Compound 1-53] | 6.30 to 7.29 | 7.30 to 7.96 | – | – |
| CC(C)(O)Cn1cc(C(=O)C2COc3ccc(Cl)cc3C2)c2cnc(-c3cn[nH]c3F)nc21 (stereo not drawn) [Compound 1-54] | 7.30 to 7.96 | > 8.00 | – | – |
| CC(C)(O)Cn1cc(C(=O)[C@@H]2COc3ccc(Cl)cc3C2)c2cnc(-c3cn[nH]c3F)nc21 [Compound 1-55] | > 8.00 | > 8.00 | – | – |
| CC(C)(O)Cn1cc(C(=O)C2COc3ccc(Cl)cc3C2)c2cnc(-c3cn[nH]c3Cl)nc21 (stereo not drawn) [Compound 1-57] | > 8.00 | > 8.00 | – | – |
| COc1[nH]ncc1-c1ncc2c(C(=O)C3COc4ccc(Cl)cc4C3)cn(CC(C)(C)O)c2n1 (stereo not drawn) [Compound 1-58] | 7.30 to 7.96 | > 8.00 | – | – |
| COc1n[nH]cc1-c1cc2c(cn1)c(C(=O)C1COc3ccc(Cl)cc3C1)cn2CCO (stereo not drawn) [Compound 1-59, hydrochloride] | – | – | 6.30 to 7.29 | 7.30 to 7.96 |
| COc1[nH]ncc1-c1cc2c(cn1)c(C(=O)C1COc3ccc(Cl)cc3C1)cn2CCN(C)C (stereo not drawn) [Compound 1-60, (6-chlorochroman-3-yl)(1-(2-(dimethylamino)ethyl)-6-(5-methoxy-1H-pyrazol-4-yl)-1H-pyrrolo[3,2-c]pyridin-3-yl)methanone metanesulfonic acid] | > 8.00 | > 8.00 | – | – |
| O=C(c1cn(CCO)c2cc(-c3c[nH]c4ncccc34)ccc12)C1COc2ccccc2O1 (stereo not drawn) [Compound 2-3] | 6.30 to 7.29 | 7.30 to 7.96 | – | – |
| O=C(c1cn(CCO)c2cc(-c3c[nH]nc3Cl)ccc12)C1COc2ccccc2O1 (stereo not drawn) [Compound 2-4] | > 8.00 | > 8.00 | – | – |
| O=C(c1cn(CCO)c2cc(-c3c[nH]c4ncccc34)ccc12)C1COc2ccccc2C1 (stereo not drawn) [Compound 2-5] | 6.30 to 7.29 | 7.30 to 7.96 | – | – |
| O=C(c1cn(CCO)c2cc(-c3cn[nH]c3)ccc12)C1COc2ccc(F)cc2O1 (stereo not drawn) [Compound 2-9] | 7.30 to 7.96 | > 8.00 | – | – |
| O=C(c1cn(CCO)c2cc(-c3cn[nH]c3)ccc12)C1COc2cc(Cl)ccc2O1 (stereo not drawn) [Compound 2-10] | 6.30 to 7.29 | 7.30 to 7.96 | – | – |
| O=C(c1cn(CCO)c2cc(-c3cn[nH]c3)ccc12)C1COc2cc(F)ccc2O1 (stereo not drawn) [Compound 2-11] | 6.30 to 7.29 | > 8.00 | – | – |
| O=C(c1cn(CCO)c2cc(-c3cn[nH]c3)ccc12)C1COc2cc(Cl)c(Cl)cc2O1 (stereo not drawn) [Compound 2-12] | 6.30 to 7.29 | 6.30 to 7.29 | – | – |
| O=C(c1cn(CCO)c2cc(-c3cn[nH]c3)ccc12)C1COc2ccc(Cl)cc2O1 (stereo not drawn) [Compound 2-13] | 6.30 to 7.29 | 7.30 to 7.96 | – | – |
| COCCn1nc(C(=O)[C@@H]2COc3ccccc3O2)c2ccc(-c3cn[nH]c3)cc21 [Compound 2-25] | 7.30 to 7.96 | 7.30 to 7.96 | – | – |
| COc1n[nH]cc1-c1ccc2c(C(=O)c3coc4ccccc34)nn(CCO)c2c1 [Compound 2-32] | < 6.30 | 6.30 to 7.29 | – | – |

The remaining lines, values ahead:

| pIC50 [1] | pIC50 [2] | pIC50 ([1]; hydrochloride) | pIC50 ([2]; hydrochloride) | Structure (SMILES) |
| --- | --- | --- | --- | --- |
| > 8.00 | > 8.00 | – | – | O=C(c1cn(CCO)c2cc(-c3cn[nH]c3)ccc12)C1COc2ccccc2O1 (stereo not drawn) [Compound 2-1, 2,3-Dihydro-1,4-benzodioxin-3-yl-[1-(2-hydroxyethyl)-6-(1H-pyrazol-4-yl)indol-3-yl]methanone] |
| > 8.00 | > 8.00 | – | – | O=C(c1cn(CCO)c2cc(-c3cn[nH]c3)ccc12)C1COc2ccc(Cl)cc2C1 (stereo not drawn) [Compound 2-2, (6-Chlorochroman-3-yl)-[1-(2-hydroxyethyl)-6-(1H-pyrazol-4-yl)indol-3-yl]methanone] |
| 7.30 to 7.96 | > 8.00 | – | – | O=C(c1cn(CCO)c2cc(-c3c[nH]nc3Cl)ccc12)C1COc2ccccc2C1 (stereo not drawn) [Compound 2-6] |
| > 8.00 | > 8.00 | – | – | O=C(c1cn(CCO)c2cc(-c3cn[nH]c3)ccc12)C1COc2ccc(F)cc2C1 (stereo not drawn) [Compound 2-7] |
| 6.30 to 7.29 | 6.30 to 7.29 | – | – | COc1ccc2c(c1)OCC(C(=O)c1cn(CCO)c3cc(-c4cn[nH]c4)ccc13)C2 (stereo not drawn) [Compound 2-8] |
| 7.30 to 7.96 | > 8.00 | – | – | COc1ccc2c(c1)OC(C(=O)c1cn(CCO)c3cc(-c4cn[nH]c4)ccc13)CO2 (stereo not drawn) [Compound 2-14] |
| > 8.00 | > 8.00 | – | – | COc1ccc2c(c1)CC(C(=O)c1cn(CCO)c3cc(-c4c[nH]nc4Cl)ccc13)CO2 (stereo not drawn) [Compound 2-15] |
| 7.30 to 7.96 | > 8.00 | – | – | O=C(c1cn(CCO)c2cc(-c3c[nH]nc3F)ccc12)C1COc2ccc(Cl)cc2C1 (stereo not drawn) [Compound 2-16] |
| 7.30 to 7.96 | 7.30 to 7.96 | – | – | O=C(c1cn(CCO)c2cc(-c3cn[nH]c3)ccc12)C1COc2ccccc2C1 (stereo not drawn) [Compound 2-23] |
| 7.30 to 7.96 | > 8.00 | – | – | COCCn1nc(C(=O)C2COc3ccccc3C2)c2ccc(-c3cn[nH]c3)cc21 (stereo not drawn) [Compound 2-24, Chroman-3-yl-[1-(2-methoxyethyl)-6-(1H-pyrazol-4-yl)indazol-3-yl]methanone] |
| 6.30 to 7.29 | 6.30 to 7.29 | – | – | O=C(c1nn(CCO)c2cc(-c3c[nH]nc3C(F)(F)F)ccc12)C1COc2ccc(F)cc2C1 (stereo not drawn) [Compound 2-26] |
| 7.30 to 7.96 | > 8.00 | – | – | COc1n[nH]cc1-c1ccc2c(C(=O)C3COc4ccc(F)cc4C3)nn(CCO)c2c1 (stereo not drawn) [Compound 2-27] |
| < 6.30 | < 6.30 | – | – | CC(C)c1n[nH]cc1-c1ccc2c(C(=O)C3COc4ccc(F)cc4C3)nn(CCO)c2c1 (stereo not drawn) [Compound 2-28] |
| < 6.30 | 6.30 to 7.29 | – | – | COc1n[nH]cc1-c1ccc2c(C(=O)C3COc4ccc(Cl)cc4C3)nn(CC#N)c2c1 (stereo not drawn) [Compound 2-29] |
| 6.30 to 7.29 | 6.30 to 7.29 | – | – | COc1n[nH]cc1-c1ccc2c(C(=O)C3Cc4ccccc4O3)nn(CCO)c2c1 (stereo not drawn) [Compound 2-30] |
| 6.30 to 7.29 | 6.30 to 7.29 | – | – | COc1n[nH]cc1-c1ccc2c(C(=O)C3(C)COc4ccccc4O3)nn(CCO)c2c1 (stereo not drawn) [Compound 2-31] |
| 6.30 to 7.29 | 7.30 to 7.96 | – | – | COc1n[nH]cc1-c1ccc2c(C(=O)C3COc4ccc(Cl)cc4C3)nn(CC(C)O)c2c1 (stereo not drawn) [Compound 2-33] |
| 6.30 to 7.29 | 7.30 to 7.96 | – | – | COc1n[nH]cc1-c1ccc2c(C(=O)C3COc4ccc(Cl)cc4C3)nn(C[C@@H](C)O)c2c1 (stereo partly drawn) [Compound 2-34] |
| 6.30 to 7.29 | 7.30 to 7.96 | – | – | COc1n[nH]cc1-c1ccc2c(C(=O)C3COc4ccc(Cl)cc4C3)nn(C[C@H](C)O)c2c1 (stereo partly drawn) [Compound 2-35] |
| 7.30 to 7.96 | > 8.00 | – | – | O=C(c1nn(CCO)c2cc(-c3cn[nH]c3)ccc12)C1COc2ccc(F)cc2C1 (stereo not drawn) [Compound 3-1, (6-fluorochroman-3-yl)(1-(2-hydroxyethyl)-6-(1H-pyrazol-4-yl)-1H-indazol-3-yl)methanone] |
| 7.30 to 7.96 | > 8.00 | – | – | O=C(c1nn(CCO)c2cc(-c3cn[nH]c3)ccc12)C1COc2ccccc2C1 (stereo not drawn) [Compound 3-2] |
| 7.30 to 7.96 | > 8.00 | – | – | O=C(c1nn(CCO)c2cc(-c3cn[nH]c3)ccc12)C1COc2ccc(F)cc2O1 (stereo not drawn) [Compound 3-3] |
| 6.30 to 7.29 | > 8.00 | – | – | O=C(c1nn(CCO)c2cc(-c3cn[nH]c3)ccc12)C1COc2ccc(Cl)cc2O1 (stereo not drawn) [Compound 3-4] |
